This is an account of results in PMC6017844, “4-Thiazolidinone Derivatives as MMP Inhibitors in Tissue Damage: Synthesis, Biological Evaluation and Docking Studies” (Molecules : A Journal of Synthetic Chemistry and Natural …, 2018).

A word on the IC50: it is the midpoint of a concentration-inhibition curve. Broadly, the melting point is the temperature, or range, at which the solid turns liquid.

One data set concerns the target T1, human recombinant MMP-9 (Homo sapiens, UniProt P14780).
T1 construct: using 10 nM of proteolytic enzyme (catalytic domains of MMP-9 (Biomol, Inc.)); purchased Biomol, Inc
The data set is described as follows: MMP-9 fluorimetric assay. Format: biochemical. The settings on record: catalytic domain of MMP-9 10 nM, substrate 350 nM, 25 °C, pH 7; mean ± SD (n = 3); n.a. = not active; read-out: IC50 Value. The procedure: The synthesized compounds 13–19, 22 and 23 were tested for their in vitro ability to inhibit human recombinant MMP-9. Table 2 reports the results of this inhibition assay, expressed as IC50 (µM). […] We used as positive control a potent MMPs inhibitor, NNGH (N-isobutyl-N-(4-methoxy-phenylsulfonyl)glycylhydroxamic acid).
The compounds were evaluated for their ability to inhibit the hydrolysis of fluorescence-quenched peptide substrate Mca-Pro-Leu-Gly-Leu-Dpa-Ala-Arg-NH2 (Biomol, Inc., Enzo Life Sciences, Inc., Farmingdale, NY, USA). The MMP-9 assays were performed in 50 mM HEPES buffer containing 5 mM CaCl2, 0.1 mM ZnCl2, 0.05% Brij-35, at pH 7, using 10 nM of proteolytic enzyme (catalytic domains of MMP-9 (Biomol, Inc.) and 350 nM of peptide substrate. The enzyme was incubated at 25 °C with increasing concentration (0.0004, 0.004, 0.04, 0.4, 4, 40, 400 µM) of compounds, and the fluorescence (excitation max 328 nm; emission max 393 nm) was measured for 3 min after the addition of the substrate using a Victor Wallac 1420 Multilabel Counters fluorimeter (Perkin Elmer, Waltham, MA, USA). The fluorescence values of the samples were plotted against the time with a linear regression fit, using the Origin software, version 7 (Origin Lab Corporation, Northampton, MA, USA). The slope of the line value for each inhibitor concentrations was obtained where an increase of the slope corresponds to a decrease of inhibitory activity. Subsequently, the IC50 values were obtained from a non-linear regression procedure (log inhibitor vs. response) with a variables slope of the regression line (Y) and the molar inhibitor concentration (X), using the software Origin®7 (Origin Lab Corporation). The IC50 value was obtained from the equation Y = P1/(1 + X/P2). NNGH (N-Isobutyl-N-(4-methoxyphenylsulfonyl)glycylhydroxamic acid) a potent MMPs inhibitor was used as a positive control.

A short description of data set [1]: Oxygen Radical Absorbance Capacity (ORAC) assay. The settings on record: fluorescein 10 nM, AAPH 100 mM, 37 °C, pH 7.0; mean ± SD (n = 3); Trolox = 1 ORAC Units. The source says: Free radicals and ROS are highly reactive molecules that are generated by normal cellular processes. They react with cellular components, damaging DNA, carbohydrates, proteins, and lipids causing cellular and tissue injury. Although organisms have developed complex antioxidant systems to protect themselves from oxidative substances, an excess of ROS production can lead to inflammation and several disease state. ORAC test measures both lipophilic and hydrophilic antioxidant capacity and determines the ability of antioxidants to protect proteins from damage caused by free radicals. ORAC assay has been widely accepted as a standard in vitro to measure the antioxidant activity of synthetic compounds, measuring their capacity to transfer hydrogen atom. The assay measures the loss of fluorescence over time due to peroxyl-radical formation by the breakdown of 2,2′-azobis-2-methyl-propanimidamide dihydrochloride (AAPH). 6-Hydroxy-2,5,7,8-tetramethylchroman-2-carboxylic acid (Trolox), a water soluble vitamin E analog, is a positive control that inhibits the fluorescein decay in a dose dependent manner. The ORAC assay is a kinetic assay measuring fluorescein decay and antioxidant protection over time.
The ORAC assay was performed as previously reported by Cao et al.. The measurements were carried out on a Wallac 1420 Victor^3 96-well plate reader (EG & Wallac, Turku, Finland) with fluorescence filter ([…]). Fluorescein (10 nM) was the fluorescence probe and target molecule for free radical attack from AAPH (100 mM) as peroxyl radical generator. The reaction was conducted at 37 °C at pH 7.0 with Trolox (12.5 μM) as control standard and phosphate buffer as blank. Compounds 13–19 and 22–23 were appropriately diluted with DMSO/buffer (1:10) prior to analysis. The fluorescein fluorescence was recorded every 2 min after addition of AAPH. All measurements were expressed relative to the initial reading. One blank, one standard, and a maximum of 10 samples were analyzed at the same time. Each measure was repeated at least three times. The ORAC value refers to the net protection area under the quenching curve of fluorescein in the presence of an antioxidant. The final results (ORAC value) were calculated and expressed using Trolox equivalents (TE) per gram of extract (TE/g):ORAC value (μM) = K(S sample − S blank)/(S Trolox − S blank)(1) where K is a sample dilution factor, S is the area under the fluorescence decay curve of the sample, Trolox or blank. This area was calculated with Origin®7 (OriginLab Corporation, Northampton, MA, USA).

T1 sequence (P14780 107-444 limits assumed): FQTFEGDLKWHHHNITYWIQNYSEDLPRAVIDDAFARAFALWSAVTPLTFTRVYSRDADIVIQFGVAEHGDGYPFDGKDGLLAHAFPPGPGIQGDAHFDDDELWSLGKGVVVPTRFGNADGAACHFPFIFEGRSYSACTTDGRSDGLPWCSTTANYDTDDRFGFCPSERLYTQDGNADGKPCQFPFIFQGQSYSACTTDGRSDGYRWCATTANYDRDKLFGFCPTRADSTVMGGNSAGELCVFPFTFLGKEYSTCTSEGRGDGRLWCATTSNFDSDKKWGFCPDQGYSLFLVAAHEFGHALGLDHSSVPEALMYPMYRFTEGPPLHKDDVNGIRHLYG

In the case of `CC(C(=O)NN1C(=O)CSC1c1ccc(Cl)cc1)c1nsc2ccccc12` (centres unmarked) [Compound 18, 2-(1,2-Benzothiazol-3-yl)-N-[2-(4-chlorophenyl)-4-oxo-1,3-thiazolidin-3-yl]propanamide], the half-inhibitory concentration (IC50) at human recombinant MMP-9 turned out to be 16.1 ± 1.23 µM. The “ORAC UNITs” value in data set [1] is 0.47 ± 0.23 ORAC unit (μmol of Trolox equi.
For the compound `COc1ccc(C2SCC(=O)N2NC(=O)C(C)c2nsc3ccccc23)cc1` (centres unmarked) [Compound 15, 2-(1,2-Benzothiazol-3-yl)-N-[2-(4-methoxyphenyl)-4-oxo-1,3-thiazolidin-3-yl]propanamide], at human recombinant MMP-9, the IC50 was found to be 6.82 ± 0.95 µM. For the same compound, in data set [1], the “ORAC UNITs” value is 0.66 ± 0.12 ORAC unit (μmol of Trolox equi.
As to `CC(C(=O)NN1C(=O)CSC1c1ccc(C(F)(F)F)cc1)c1nsc2ccccc12` (centres unmarked) (hydrate or solvate) [Compound 17, 2-(1,2-Benzothiazol-3-yl)-N-{4-oxo-2-[4-(trifluoromethyl)phenyl]-1,3-thiazolidin-3-yl}propanamide], the melting point is 145 to 147 °C.
Still for that read-out and setting: the value for `CC(C(=O)NN1C(=O)CSC1c1ccc(F)cc1)c1nsc2ccccc12` (centres unmarked) (hydrate or solvate) [Compound 16, 2-(1,2-Benzothiazol-3-yl)-N-[2-(4-fluorophenyl)-4-oxo-1,3-thiazolidin-3-yl]propanamide] was 185 to 186 °C.
`CC(C(=O)NN1C(=O)CSC1c1ccc([N+](=O)[O-])cc1)c1nsc2ccccc12` (centres unmarked) [Compound 19, 2-(1,2-Benzothiazol-3-yl)-N-[2-(4-nitrophenyl)-4-oxo-1,3-thiazolidin-3-yl]propanamide]: the half-inhibitory concentration (IC50) on human recombinant MMP-9 is 22.1 ± 1.42 µM. In addition, the “ORAC UNITs” value in data set [1] is reported as 0.40 ± 0.17 ORAC unit (μmol of Trolox equi.
Take `CC(C(=O)NN1C(=O)CSC1c1ccccc1)c1nsc2ccccc12` (centres unmarked) (hydrate or solvate) [Compound 13, 2-(1,2-Benzothiazol-3-yl)-N-(4-oxo-2-phenyl-1,3-thiazolidin-3-yl)propanamide]: the melting point was 239 to 240 °C.
For `CC(C(=O)NN1C(=O)CSC1c1ccc(F)cc1)c1nsc2ccccc12` (centres unmarked) [Compound 16, 2-(1,2-Benzothiazol-3-yl)-N-[2-(4-fluorophenyl)-4-oxo-1,3-thiazolidin-3-yl]propanamide], the 50% inhibitory concentration (IC50) at human recombinant MMP-9 worked out at 17.2 ± 1.92 µM. Besides, in data set [1], the “ORAC UNITs” value was 0.46 ± 0.20 ORAC unit (μmol of Trolox equi.
As to `COc1ccc(S(=O)(=O)N(CC(=O)NO)CC(C)C)cc1` [NNGH, N-isobutyl-N-(4-methoxy-phenylsulfonyl)glycylhydroxamic acid, reference compound], the IC50 at human recombinant MMP-9 was 0.0065 ± 0.00025 µM.
Take `CC(C(=O)NN1C(=O)CSC1c1ccccc1)c1nsc2ccccc12` (centres unmarked) [Compound 13, 2-(1,2-Benzothiazol-3-yl)-N-(4-oxo-2-phenyl-1,3-thiazolidin-3-yl)propanamide]: at human recombinant MMP-9, the 50% inhibitory concentration (IC50) was 7.99 ± 0.65 µM. Also, in data set [1], the “ORAC UNITs” value is reported as 0.61 ± 0.14 ORAC unit (μmol of Trolox equi.
On the same counts, the results for `Cc1ccc(C2SCC(=O)N2NC(=O)C(C)c2nsc3ccccc23)cc1` (centres unmarked) [Compound 14, 2-(1,2-Benzothiazol-3-yl)-N-[2-(4-methylphenyl)-4-oxo-1,3-thiazolidin-3-yl]propanamide] are 9.01 ± 0.45 µM and 0.40 ± 0.06 ORAC unit (μmol of Trolox equi.
Consider `CC(C(=O)NN1C(=O)CSC1c1ccc(Cl)cc1)c1nsc2ccccc12` (centres unmarked) (hydrate or solvate) [Compound 18, 2-(1,2-Benzothiazol-3-yl)-N-[2-(4-chlorophenyl)-4-oxo-1,3-thiazolidin-3-yl]propanamide], for which the melting point lay in the range of 187 to 188 °C.
On to `CC(C(=O)NN1C(=O)CSC1c1ccc(C(F)(F)F)cc1)c1nsc2ccccc12` (centres unmarked) [Compound 17, 2-(1,2-Benzothiazol-3-yl)-N-{4-oxo-2-[4-(trifluoromethyl)phenyl]-1,3-thiazolidin-3-yl}propanamide], for which the “ORAC UNITs” value in data set [1] is recorded as 0.27 ± 0.06 ORAC unit (μmol of Trolox equi.
As for `CC(C(=O)NN1C(=O)CSC1c1ccc([N+](=O)[O-])cc1)c1nsc2ccccc12` (centres unmarked) (hydrate or solvate) [Compound 19, 2-(1,2-Benzothiazol-3-yl)-N-[2-(4-nitrophenyl)-4-oxo-1,3-thiazolidin-3-yl]propanamide], the melting point lay in the range of 208 to 209 °C.
In turn, `COc1ccc(C2SCC(=O)N2NC(=O)C(C)c2nsc3ccccc23)cc1` (centres unmarked) (hydrate or solvate) [Compound 15, 2-(1,2-Benzothiazol-3-yl)-N-[2-(4-methoxyphenyl)-4-oxo-1,3-thiazolidin-3-yl]propanamide] had a melting point of 170 °C.
